Data set [1] deals with N2A mouse neuroblastoma cells. Description: Protection of N2A cells from 6-OHDA (viability, alamar blue). The settings on record: 30 or 40 μM 6-OHDA 22 hrs, peptide 10 fM and 1 μM. The data set is classed as cell-based. As for the experimental part: All peptides were synthesized by LifeTein (South Pleinfield, N.J., USA) at >95% purity. N2A mouse neuroblastoma and SK-N-SH human neuroblastoma (ATCC) were maintained in Dulbecco's modified Eagle's medium supplemented with 10% fetal calf serum, L-Glut and 1% Penicillin-Streptomycin (Beit Haemek, Israel). Cells were maintained in an incubator at 37° C. with 5% CO2. SK-N-SH cells were treated with 3 μM RA (Sigma-Aldrich) for 5 days prior to each experiment to allow the cells to differentiate towards neuronal cells. […] The intensity of the water soluble dye is proportional to the number of metabolic active cells. […] The viability assay was followed by caspase 3 assay (EnzChek Caspase3 Assay kit, Invitrogen, Carlsbad, Calif., USA) according to the manufacture's instructions
All methods are the same as in Example 1 above. Peptides and 6-hydroxydopamine were purchased from Sigma-Aldrich (St. Lewis, USA).
These peptides were screened for their protective effect on 6-hydroxydopamine (6-OHDA) treated N2A cells at 1 pM concentration. 6-OHDA is a dopamine analogue that is commonly used in model systems to mimic Parkinson's disease in vitro and in vivo, 6-OHDA induces apoptosis through release of reactive oxygen species (ROS) and by a possible direct effect on the mitochondrial respiratory chain. […] The protective effect of some of the peptides was tested in a wide dose range. […] The peptide panel was also tested for their effect on Aβ (25-35) induced toxicity in SK-N-SH human neuroblastoma cells at pM concentration. The profile of peptides effective against the Aβ stress was strikingly different than the 6-OHDA-effective peptides (FIGS. 7A-B).
The peptides shown on Table 3 were tested for their effect in protecting N2A from 6-OHDA (FIG. 8). […] Such modifications include C-terminus truncation (26-1, 26-2 and 26-3), replacement of the N-terminal glutamic acid residue with glutamine and histidine at position 7 with alanine (26-8 and 26-9, respectively).

The test system of another data set is MPTP-treated mice. The data set can be described thus: MPTP mouse Parkinson's model, striatal dopamine and metabolites by HPLC. The data set is classed as in vivo, C57BL mice. The conditions noted are these: for DA / DOPAC / HVA: striatal level, peptide 1 mg/kg intranasal, divided by total protein and normalized to vehicle treated mice. As for the experimental part: C57BL mice (all male, age 8-12 weeks, obtained from Harlan Laboratories Israel) were administered with 18 mg/kg MPTP (Sigma-Aldrich) at a dosage volume of 100 μl/mouse by intraperitoneal (IP) injection twice daily, 3 hrs apart on days 1 and 2. On study day 0 and for 8 consecutive days, mice were administered intranasally with PBS (vehicle) or one of the peptides at 1 mg/kg in 12 μl/mouse. All peptides used in in vivo studies were synthesized by LifeTein and were modified with N terminal acetylation and C terminal amidation. For intranasal instillation, each mouse was mildly anesthetized (2.5% Isoflurane) then restrained and held with the neck parallel to the table while a total volume of 12 μl was administered into the nostril. Six (6) μl was administered to the left nostril as two 3 μl drops, followed by a 15 sec hold, and 6 μl was administered to the right nostril as two 3 μl drops, followed by a 15 seconds hold. On day 8 the animals were euthanized by cervical dislocation. Immediately after euthanasia, the brains were removed and the striata dissected (left and right striatum were pooled), weighed and frozen in dry ice. The striata samples were homogenized in a solution containing 0.1 M perchloric acid and 10 ng/ml 3,4 dihydroxybenzylamine (DHBA) by 5 seconds sonication at 80 W. The supernatants of each tissue extract were injected directly to HPLC pump (Jasco PU-2080Plus) onto a reverse phase column (GL-Science, Inertsil ODS-2 5 um 4.6×150 mm at room temperature) coupled to an electrochemical detector Coulochem II ESA with a conditioning cell model 5021 and analytical cell model 5011. The working potential was set to 0.35V on the conditioning cell and 0.1V and −0.35V on the analytical cell. The mobile phase was 0.05M monobasic sodium phosphate, with 80 mg/L EDTA, 125 mg/L heptane sulfonic acid, 55 ml of methanol and 50 ml of acetonitrile pH=2.7. The flow rate was 1.5 ml/min. The dopamine, DOPAC and HVA values were normalized to the lysate protein concentration (BCA kit, Pierce).
In this model, repeated itraperitoneal injections of MPTP (18 mg/kg at 3-h intervals on two consecutive days) result in dopaminergic neuronal death in the substantia nigra and dopamine depletion of the striatum. The peptides (or vehicle) were applied twice daily by intranasal instillation at 1 mg/kg starting 1 day prior to exposure to MPTP and continued until the end of the study. 7 days after the injection of MPTP mice were sacrificed and striatal levels of dopamine (DA), […] (DOPAC) and homovanillic acid (HVA) were evaluated by HPLC.
Specifically Table 2 illustrates the effect of human V6 and V 10-derived peptides (1 mg/kg, intranasal administration) on the striatal level of dopamine and metabolites in MPTP-treated mice. Mice were treated according to the protocol described in the Materials and Methods. Striatal levels of DA, DOPAC and HVA were determined by HPLC, divided by the total protein content value and normalized to the levels obtained in vehicle treated mice. Groups 1 and 3 treated with 1:1 mix of normal designated and retro-inverso analog (D amino acids at reversed sequence). Group 6 was treated with 1:1 mix of 10B2.5—6 and 10B2.5—9 peptides.

Data set [2] relates to Aβ(1-42) microinjection rat model. Description: Aβ(1-42) microinjection rat model, IH/ICV peptide, novel object recognition. The conditions noted are these: 21 days after Aβ injection, p<0.01 versus vehicle. The data set is classed as in vivo, Sprague Dawley rats. As for the experimental part: Aβ(1-42) (Sigma-Aldrich, USA), was dissolved in filtered PBS at the concentration of 6 μg/μl, and the solution kept at 37° C. for 2 days before use. One microliter of the solution was injected by means of a microsyringe into the right hippocampus under sodium pentobarbital (55 mg/kg i.p.) anesthesia at the stereotaxic coordinates: AP=−3.6, ML=2.0, from Bregma and DV=3.0 from the skull. Control rats were injected with 1 μl of PBS. In the IH/ICV study, 1 μl of the peptide or PBS was also injected into the right hippocampus at the same stereotaxic coordinates.
For ICV injection, a microinjection cannula was planted into the lateral cerebral ventricle according to the following stereotaxic coordinates: AP=−1, ML=1.6, DV=3.8. […]
The training apparatus was a black Plexiglas box (50×50×40 cm) placed in a sound-attenuating cabinet which was located in a brightly lit and isolated room. […] During the training trial, the rat was placed in the box and allowed to explore two identical objects for 10 min and the total time spent exploring both objects was recorded. […] The rat was placed in the box for 3 min and the time spent exploring each object and the total time spent exploring both objects were recorded. The discrimination index used to assess memory was calculated as the difference in time exploring the novel and familiar object, expressed as the ratio of the total time spent exploring both objects. […]

Data set [3] has as its system Met tyrosine kinase receptor. The settings on record: literature reference [24]; cited from earlier work.
The nature of data set [4]: Pharmacokinetics after subcutaneous administration in rats (plasma, LC-MS/MS). The conditions noted are these: subcutaneous 1 mg/kg; for Cmax: male, Sprague-Dawley, sc, rat plasma, read-out: apparent Cmax. The data set is classed as in vivo, Sprague Dawley rats. As for the experimental part:
The pharmacokinetics of the peptides was evaluated following SC peptide administration in male Sprague Dawley rats. Peptide solution was prepared using phosphate buffer saline (pH 7.4) as vehicle and was administered through subcutaneously at the dose of 1 mg/kg with dosing volume of 2 mL/kg.
Blood samples were collected at 0 (pre-dose) and 0.17, 0.5, 1, 2, 4, 8 and 24 hours following administration. At each time point, approximately 0.25 mL of blood was withdrawn through jugular vein of the cannulated rats and transferred to a pre-labeled microfuge tube containing 200 mM K2EDTA (20 μL per mL of blood). Following sampling equal volume of heparinized saline was flushed in to catheter. Blood samples were centrifuged at 5000 g for 5 minutes at 4±2° C. All the plasma samples were stored below −70° C. until analysis. A fit-for-purpose LC-MS/MS method was used for the quantification of the peptides in plasma samples. The lower limit of quantification (LLOQ) was 22.34 ng/mL.

These results are taken from patent publication US20140045764A1, “NEUROPROTECTIVE PEPTIDES” (Neurim Pharmaceuticals (1991) Ltd., priority 2012, published 2014).

Marks after values point to notes of the source that are not given here.

On to EGYTSAYP (Human 26-9 peptide), for which the “activity in protecting N2A from 6-OHDA” value in data set [1] is recorded as “maintaining at least partial activity”.
As for NVNRSL (Human V10B2.5_6 peptide), the “levels of at least one of the 2 DA metabolites, DOPAC and HVA” value (“levels” for short) in the data set on MPTP-treated mice (1 mg/kg intranasal) was “increased significantly”.
With “hV10A2: human CD44V10-derived peptide, SEQ ID NO: 12; sequence not printed (TKESRTFIPVTSAKT; Human V10A2 peptide)”, in the data set with MPTP-treated mice (1 mg/kg intranasal), the “levels” value was “increased significantly”. Moreover, in the data set with MPTP-treated mice, the DA is reported as 24.7, the DOPAC is listed as 54.8 * and the HVA is 73.4 **.
The like results for “hV10B3: human CD44V10-derived peptide, SEQ ID NO: 15; sequence not printed (SLSGDQDTFHPSG; Human V10B3 peptide)” were, in that order, “increased significantly”, 18.1, 22.5 and 44.2 *.
With PVTSAKTGSFG [V10A/B_S], in the data set on MPTP-treated mice, the DA worked out at 26.6, the DOPAC came out at 27.2 and the HVA is recorded as 13.7.
Turning to EGYTSHY (Human 26-1 peptide), in data set [1], the “activity in protecting N2A from 6-OHDA” value is recorded as “maintaining at least partial activity”.
Still for that read-out and setting: the same measure for EGYTSH (Human 26-2 peptide): “maintaining at least partial activity”; for QGYTSHYP (Human 26-8 peptide): “maintaining at least partial activity”.
As to “FGVTAVTV (Human V10B1_8 peptide (also referred to as P34))”, the “discrimination index, novel object recognition” value in data set [2] (10 ng/rat IH/ICV) is on record as “increased significantly”. For the same compound, in data set [2] (100 ng/rat IH/ICV), the “discrimination index, novel object recognition” value is “increased significantly”. Besides, in the data set with MPTP-treated mice (1 mg/kg intranasal), the “effect on striatal DA level compared to the vehicle control” value is on record as “significantly positive effect”; the “levels” value was “increased significantly”. Also, in the data set with MPTP-treated mice, the DA is 46.6 *, the DOPAC is on record as 75.9 ** and the HVA was 83.3 **.
“NRWHE (A pentapeptide derived from the human V6)”: in data set [3], the “inhibiting hepatocyte growth factor (HGF) signal transduction through Met tyrosine kinase receptor” value is recorded as “capable of inhibiting”.
Regarding TTLLEG (Human V10A1_N6 peptide), in the data set with MPTP-treated mice, the DA was determined as 17.7, the DOPAC was found to be 24.3 and the HVA was −0.7.
Regarding NVNRSLSGD (Human V10B2.5_9 peptide), the “levels” value in the data set with MPTP-treated mice (1 mg/kg intranasal) is “increased significantly”.
EGYTS (Human 26-3 peptide): the “activity in protecting N2A from 6-OHDA” value in data set [1] is given as “maintaining at least partial activity”.
As for `CC(=O)N1CCC[C@@H]1C(=O)N[C@H](Cc1ccc(O)cc1)C(=O)N[C@H](Cc1c[nH]cn1)C(=O)N[C@H](CO)C(=O)N[C@@H](C(=O)N[C@H](Cc1ccc(O)cc1)C(=O)NCC(=O)N[C@H](CCC(=O)O)C(N)=O)[C@H](C)O` (relative stereo) [26-RI, *P*Y*H*S*T*Y*G*E], in data set [4], the Cmax was found to be 1230 ng/mL. Besides, the “improvement of Cmax compared to P26” value in data set [4] (rat) stood at 10 fold.
Take “Ac-EGYTSHYP-NH2 (N-terminus and C-terminus assumed) [V10A1_N+4, EGYTSHYP]”: the Cmax in data set [4] was determined as 130 ng/mL.
As for EDSH (Human V6B1_C4 peptide) [hV6B1_C4], in the data set on MPTP-treated mice, the DA came out at 20.7, the DOPAC was 41.7 and the HVA was 16.6.
